{"source": "PubChem BioAssay AID1259407", "about": "(Chemical Carcinogenesis Research Information System (CCRIS), 2018)", "tested_on": "CCRIS mutagenicity, Ames/micronucleus/aberration tests", "assay": "CCRIS mutagenicity studies", "note": "Calls of active or inactive are those of the source. The rule behind the calls is not given here.", "data": [{"smiles": "Cc1cc2c(c3ccc4c(O)c(O)ccc4c13)CCC2=O", "values": [{"measurement": "mutagenic call", "setting": "Test System: AMES SALMONELLA TYPHIMURIUM, Strain/Indicator: TA100, Metabolic Activation: RAT, LIVER, MICROSOMES, 15,16-DIHYDRO-11-METHYL-17(H)-CYCLOPENTA[A] PHENANTHREN-17-ONE, Method: STANDARD PLATE", "result": "inactive; negative"}, {"measurement": "mutagenic call", "setting": "Test System: AMES SALMONELLA TYPHIMURIUM, Strain/Indicator: TA100, Metabolic Activation: RAT, LIVER, MICROSOMES, BENZO[A]PYRENE, Method: STANDARD PLATE", "result": "active; positive"}, {"measurement": "mutagenic call", "setting": "Test System: AMES SALMONELLA TYPHIMURIUM, Strain/Indicator: TA100, Metabolic Activation: RAT, LIVER, MICROSOMES, CLOFIBRATE, Method: STANDARD PLATE", "result": "inactive; negative"}, {"measurement": "mutagenic call", "setting": "Test System: AMES SALMONELLA TYPHIMURIUM, Strain/Indicator: TA100, Metabolic Activation: RAT, LIVER, MICROSOMES, DEXAMETHASONE, Method: STANDARD PLATE", "result": "inactive; negative"}, {"measurement": "mutagenic call", "setting": "Test System: AMES SALMONELLA TYPHIMURIUM, Strain/Indicator: TA100, Metabolic Activation: RAT, LIVER, MICROSOMES, ISONIAZID, Method: STANDARD PLATE", "result": "inactive; negative"}, {"measurement": "mutagenic call", "setting": "Test System: AMES SALMONELLA TYPHIMURIUM, Strain/Indicator: TA100, Metabolic Activation: RAT, LIVER, MICROSOMES, PHENOBARBITONE, Method: STANDARD PLATE", "result": "inactive; negative"}, {"measurement": "mutagenic call", "setting": "Test System: AMES SALMONELLA TYPHIMURIUM, Strain/Indicator: TA100, Metabolic Activation: RAT, LIVER, MICROSOMES, Method: STANDARD PLATE", "result": "inactive; negative"}]}, {"smiles": "O=[N+]([O-])c1ccc(/C=C/c2cccc(Cl)c2)cc1", "values": [{"measurement": "mutagenic call", "setting": "Test System: AMES SALMONELLA TYPHIMURIUM, Strain/Indicator: TA98 (NR), Metabolic Activation: NONE, Method: STANDARD PLATE", "result": "active; positive"}, {"measurement": "mutagenic call", "setting": "Test System: AMES SALMONELLA TYPHIMURIUM, Strain/Indicator: TA98 (NR), Metabolic Activation: S-9, Method: STANDARD PLATE", "result": "active; positive"}, {"measurement": "mutagenic call", "setting": "Test System: AMES SALMONELLA TYPHIMURIUM, Strain/Indicator: TA98, Metabolic Activation: NONE, Method: STANDARD PLATE", "result": "active; positive"}, {"measurement": "mutagenic call", "setting": "Test System: AMES SALMONELLA TYPHIMURIUM, Strain/Indicator: TA98, Metabolic Activation: S-9, Method: STANDARD PLATE", "result": "active; positive"}, {"measurement": "mutagenic call", "setting": "Test System: AMES SALMONELLA TYPHIMURIUM, Strain/Indicator: TA100(NR), Metabolic Activation: NONE, Method: STANDARD PLATE", "result": "inactive; negative"}, {"measurement": "mutagenic call", "setting": "Test System: AMES SALMONELLA TYPHIMURIUM, Strain/Indicator: TA100 (NR), Metabolic Activation: S-9, Method: STANDARD PLATE", "result": "active; positive"}, {"measurement": "mutagenic call", "setting": "Test System: AMES SALMONELLA TYPHIMURIUM, Strain/Indicator: TA100, Metabolic Activation: NONE, Method: STANDARD PLATE", "result": "active; positive"}, {"measurement": "mutagenic call", "setting": "Test System: AMES SALMONELLA TYPHIMURIUM, Strain/Indicator: TA100, Metabolic Activation: S-9, Method: STANDARD PLATE", "result": "active; positive"}]}, {"smiles": "CC(=O)O/C=C/Cc1ccc2c(c1)OCO2", "values": [{"measurement": "mutagenic call", "setting": "Test System: UDS HUMAN FIBROBLASTS, Strain/Indicator: THY INCORP (NON-S-PHASE), Metabolic Activation: NONE, Method: AUTORADIOGRAPHY", "result": "active; positive"}]}]}
